Laboratory results: patent publication US20110300147A9, “Inhibiting tumor cell invasion, metastasis and angiogenesis” (The Scripps Research institute, priority 2005, published 2011)
Peptide text beside a SMILES is read from it. * marks the point of attachment. Doxorubicin(3'-N) = COc1cccc2c1C(=O)c1c(O)c3c(c(O)c1C2=O)C[C@@](O)(C(=O)CO)C[C@@H]3O[C@H]1C[C@H](N*)[C@H](O)[C@H](C)O1; Boc = CC(C)(C)OC(=O)*

Tests used:
[1] = system: legumain-expressing 293 (293L) cells; assay: UV-induced apoptosis of legumain-expressing 293 cells; type: cell-based, human; conditions: dead cells after UV treatment as a function of AEPI-5 concentration
[2] = system: legumain-expressing 293 (293L) cells; assay: TNF-α induced cell death with or without AEPI-5; type: cell-based, human; conditions: with or without AEPI-5, function of TNF-α concentration
[3] = system: cancer cells; assay: chemo-sensitizing cytotoxic assay, TNF-α plus legumain inhibitor; type: cell-based; conditions: compared among AEPI-1 to AEPI-5
Experimental: Chemo-sensitizing Cytotoxic Assay. Cancer cells were prepared for the assay as follows. The cells were centrifuged at 800 rpm for 10 minutes, resuspended in DMEM to a density of 1.0×10^5 cells/ml. Approximately 5 ml of cells were used per assay plate. Cells (100 ul) were added to a 96-well flat bottom plate (10,000 cells/well, all the inner wells) and 100 ul of media was added to the outer wells. The plates were incubated at 37° C. overnight. AEPI dilutions were prepared using a 96 well round bottom plate and medium as the diluent. After overnight incubation, the media was removed from the cancer cell assay plate, and the selected AEPI was added at the selected dilution or concentration. An additional 200 ul of media was added to the outer wells. Plates were incubated overnight at 37° C. XTT reagent (or other cell viability reagent) was prepared in phenol red free media. The media was removed from cells and 200 ul of fresh media containing the XTT reagent was added to all wells. The plates were incubated for 30 min to 4 hrs and cell viability was determined by reading the plates according to manufacturer specifications.

[4] = target: T1, legumain in MDA MB231 breast cancer cells (Homo sapiens, UniProt Q99538); assay: AEPI inhibitory assay, intracellular legumain activity; type: cell-based
T1 construct: endogenous in cells; host or cells: MDA-MB-231 human breast cancer cells
T1 sequence (Q99538 18-323): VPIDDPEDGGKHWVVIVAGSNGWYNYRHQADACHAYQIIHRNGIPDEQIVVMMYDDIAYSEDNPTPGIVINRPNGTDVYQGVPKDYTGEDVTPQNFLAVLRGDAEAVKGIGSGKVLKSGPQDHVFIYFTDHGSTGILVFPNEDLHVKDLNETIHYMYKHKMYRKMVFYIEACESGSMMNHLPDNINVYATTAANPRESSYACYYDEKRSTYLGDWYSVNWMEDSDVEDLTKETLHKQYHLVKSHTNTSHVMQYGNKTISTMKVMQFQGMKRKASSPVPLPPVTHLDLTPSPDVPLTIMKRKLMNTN
Experimental: AEPI Inhibitory Assay. Cancer cells were centrifuged at 800 rpm for 10 minutes and resuspended in DMEM to a density of 1.0×10^5 cells/ml. Approximately 5 ml of cells is used per assay plate. Cells (100 ul) were added to a 96-well plat bottom plate (10,000 cells/well, all the inner wells) and 100 ul of media was added to the outer wells. The cells were incubated at 37° C. overnight. The inhibitor compounds were diluted in a 96 well round bottom plate and the old media was removed from the cancer cell assay plate. The inhibitor (100 ul) was added to the cell assay plate and 200 ul of media was added to the outer wells. One to three days after the cancer cells were exposed to the inhibitor, the AEP activity was assessed as follows. Cells were detached with Trypsin-free cell-cell detachment media and transfer to Eppendorf tubes. Cells were then disrupted and the AEPI substrate was added to the cell lysate. This assay mixture was then incubated for an appropriate period of time and the amount of activated substrate was measured with fluorometer.

[5] = system: legumain+ 293 cells; assay: modified Boyden chamber invasion assay; type: cell-based, human
Experimental: (§1) Cell invasion and mobility assays. Cell migration and invasion assays were performed as described with modifications (Albini et al., 1987). Stock solutions (15 mg/ml) of Matrigel basement membrane matrix (Becton Dickinson, Bedford, Mass.) were stored at −80° C. in 100 μl aliquots. After thawing on ice, the stock was diluted 1:50 with cold serum-free culture media and immediately applied to each membrane insert (8 μm pore) that formed the upper chambers of the multi-well invasion assay plate. The Matrigel was incubated overnight in a sterile laminar tissue culture hood. The membranes were hydrated for 2 hours with 250 μl of serum-free medium and excess medium was removed by aspiration. Medium containing 10% FBS was added to the bottom of each well. A suspension of 10^5 cells in 150 μl of serum-free medium was added to the upper chamber and incubated for 12 hours at 37° C., 5% CO2. At the indicated times, the membrane inserts were removed from the plate and the non-invading cells were removed from the upper surface. Membrane associated cells were stained with 0.09% crystal violet for 30 minutes and washed twice with PBS. The invading cells were counted microscopically. Cell mobility assays were performed in a similar manner except the membrane inserts were not coated with Matrigel, and duration was shortened. […]

[6] = system: legumain+ 293 cells; assay: WST-1 cytotoxicity assay, legumain+ 293 cells; conditions: 48 h
Experimental: (§2) Cytotoxic assays. The WST-1 cell proliferation reagent (Roche Molecular Chemicals, Germany) was used to determine cell proliferation by quantification of cellular metabolic activity. Control 293 cells and legumain+ 293 cells were cultivated in microtiter plates (5×10^3 cells per well in 100 μl) and were incubated with serial concentrations of legubicin or doxorubicin for 48 h. Subsequently, 10 μl of WST-1 solution (1 mg/ml WST-1, 25 μM -methyldibenzopyrazine methyl sulfate) was added per well, and mixtures were incubated for an additional 4 h. The tetrazolium salt WST-1 (4-[3-(4-lodophenyl)-2-(4-nitrophenyl)-2H-5-tetrazolio-1,3-benzene disfonate) was cleaved by the mitochondrial succinate-tetrazolium-reductase system to formazan in cells which directly correlates to the number of metabolically viable cells in the culture. The amount of formazan salt was quantified in three replicates by absorbance at 450 nm using a micro-plate reader (Molecular Devices, Palo Alto, Calif.).
(§3) Cytotoxicity assays. The WST-1 cell proliferation reagent (Roche Molecular Chemicals, Germany) was used to determine cell proliferation by quantization of cellular metabolic activity. […] The amount of formazan salt was quantified in three replicates by absorbance at 450 nm using a micro-plate reader (Molecular Devices, Palo Alto, Calif.).

[7] = system: CT26 murine colon carcinoma; assay: CT26 syngeneic murine colon carcinoma model; type: in vivo, Balb/c mice
Text: Animal models. […] Balb/C mice aged 4 to 6 weeks from the breeding colony were inoculated with 500,000 syngeneic CT26 tumor cells per site subcutaneously in the back. […] Treatment was repeated at 2 day intervals. The human 293 tumor models were generated in WEHI nude mice (The Scripps Research Institute breeding colony). […] Tumor growth and physical signs were monitored daily including any gross evidence of tumor necrosis, local tumor ulceration as well as evidence of toxicity including mobility, response to stimulus, eating, and weight of each animal. These procedures have been reviewed and approved by the Institutional Animal Care and Use Committee at The Scripps Research Institute. The work was conducted in The Scripps Research Institute facilities which are accredited by the Association for the Assessment and Accreditation of Laboratory Animal Care. The Scripps Research Institute maintains an assurance with the Public Health Service, is registered with the United States Department of Agriculture and is in compliance with all regulations relating to animal care and welfare.
Animal models. […] Treatment was three times per week for two weeks.

[8] = system: control 293 cells; assay: WST-1 cytotoxicity assay, control 293 cells; conditions: control 293 cells, 48 h
Experimental: as §2, §3

[9] = target: T2, cell surface bound legumain (Homo sapiens, UniProt Q99538); assay: gelatin zymogram, activation of progelatinase A by cells expressing legumain; type: cell-based; conditions: zymogen incubated with cells 10 minutes
T2 construct: expressed in transfected cells; host or cells: 293 cells stably expressing human legumain (legumain+ 293)
T2 sequence (Q99538 18-323): as above
Experimental: Zymogram. Control 293 cells and legumain+ 293 cells were plated into 96 wells plates at a cell density of 4,000 cells/well. The cells were allowed to attach overnight, then were serum starved for four hours. Zymogen forms of metalloproteinase 2 or 9 (Chemicon, Temecula, Calif.) were added at concentration of 0.1 μg/well with 50 μl reaction buffer (39.5 mM citric acid, 121 mM Na2HPO4, pH 5.8, 1 mM EDTA, and 0.8% […]) and the reactions were continued for 10 minutes. The reactants were collected and mixed with an equal volume of SDS sample buffer and held at room temperature for 10 minutes then applied to a zymogram gel (10% Tris-Glycine gel with 0.1% gelatin substrate). After electrophoresis, the gel was washed briefly and incubated with 2.5% (v/v) Triton X-100 at room temperature for 30 minutes with gentle agitation. Digestion of the incorporated gelatin by activated collagenase was conducted in buffer ([…], pH 7.25, 200 mM NaCl, […], 0.05% Brij-35, 0.02% NaN3) overnight. The gel was stained with Coomassie Blue R250 (Novex, San Diego, Calif.) and the presence of a protease was readily observed as a clear band.
Activation of progelatinase A by legumain. […] Zymogen forms of gelatinase A and B were incubated with the cells for 10 minutes, and the reaction products were analyzed by zymography. […] Moreover, no effect of legumain on zymogen gelatinase B was detected.

[10] = system: legumain+ 293 cells; assay: in vitro migration assay; type: cell-based, human
Experimental: as §1

[11] = system: legumain-promoted cancer cell invasion; assay: cancer cell invasion assay with recombinant legumain protein; type: cell-based; conditions: recombinant legumain protein added
Experimental: as §1

CCOC(=O)C1OC1C(=O)N(CC(N)=O)NC(=O)C(C)NC(=O)C(C)NC(C)=O [AEPI-5, N-acetyl-Ala-Ala-AzaAsn-(S,S)-EPCOOEt]
UV-induced apoptosis [1]: sensitizes legumain-expressing 293 cells to UV-induced apoptosis | TNF-α induced cell death [2]: sensitizes MDA-MB-231 human breast cancer cells to TNF-α induced cell death | cancer cell death on combined treatment with TNF-α [3]: higher levels of cancer cell death | inhibition of legumain activities in MDA MB231 breast cancer cells ([4]; compared among AEPI-1 to AEPI-5): greatest inhibition | cell permeability ([4]; preliminary results): sufficiently cell permeable

CC(C)C[C@H](NC(=O)[C@H]1O[C@@H]1C(=O)O)C(=O)NCCCCN=C(N)N [E64, reference compound]
increased invasion of extracellular matrix by legumain+ cells [5]: without effect

COc1cccc2c1C(=O)c1c(O)c3c(c(O)c1C2=O)C[C@@](O)(C(=O)CO)C[C@@H]3O[C@H]1C[C@H](NC(=O)[C@H](CC(C)C)NC(=O)[C@H](CC(N)=O)NC(=O)[C@H](C)NC(=O)[C@H](C)NC(=O)OC(C)(C)C)[C@H](O)[C@H](C)O1 [legubicin, N-(-t-Butoxycarbonyl-L-alanyl-L-alanyl-L-asparaginyl-L-leucyl)doxorubicin] (Boc-AANL-{Doxorubicin(3'-N)})
cytotoxic effect on legumain+ 293 cells [6]: profound cytotoxic effect | toxicity ([7]; i.p. 5 mg/kg three times at 2 day intervals): little evidence of toxicity | injury in organs that express legumain (kidney, liver) ([7]; single injection of 5 mg/kg): no injury was evident | cytotoxic effect relative to that of doxorubicin [8]: less than 1%

cystatin
generation of the 62 kDa active gelatinase A by cells expressing legumain [9]: inhibited | enhanced migration of legumain+ 293 cells [10]: inhibited | legumain-promoted cell invasion [11]: partially inhibited | increased invasion of extracellular matrix by legumain+ cells [5]: inhibited
